Measurements published in patent US20060183221A1, “Method for neural differentiation of embryonic stem cells using protease passaging techniques” (priority 2003, published 2006).
“Also recorded” adds a separate entry of the source.

Assays:
[1] = system: seeded sfEBMs derived from domed HESC colonies; assay: S18 treatment of seeded serum free embryoid bodies (sfEBMs), cell death by morphology and DAPI staining; format: cell-based, human
Text: sfEBMs were derived from domed HESC colonies, grown in suspension for 24 days with one passage, and seeded to polyornithine/laminin coated chamber slides in DMEM/F12, supplemented with 1×N2 (Gibco), and 1% FCS.
Apoptosis in seeded serum free embryoid bodies was monitored by morphological observation of cell death and DAPI staining to reveal apoptotic nuclei. Apoptotic nuclei were observed as obviously fragmented and degenerating nuclei, with small punctuate patterns of DAPI staining. Rosette regions from essentially serum free embryoid bodies in suspension were passaged further in the same medium, either withdrawing S18 or culturing the embryoid bodies for an additional 4 to 8 days in the presence of S18. Rosette regions were then seeded onto polyornithine/laminin coated slides for analysis of proliferation and differentiation to neural lineages.

sfEBMs in suspension = assay: S18 treatment of essentially serum free embryoid bodies (sfEBMs) in suspension, histology and immunocytochemistry; format: cell-based, human
Experimental: Essentially serum free embryoid bodies (sfEBMs) were generated as described in Example 6, and were exposed to S18 at different stages of their development in order to assess the timing of depletion of high Oct4 expressing cells, and in order to determine when neural rosettes could be selected. The sfEBMs in suspension were treated with 10 μM S18 in 50% DMEM/F12, 50% MEDII, supplemented with 1×N2, Glutamine (20 mM), penicillin (0.5 U/ml), and streptomycin (0.5 U/ml) for varying amounts of time, and the sfEBMs were then evaluated histologically and by immunocytochemistry.
Essentially serum free embryoid bodies were derived from protease passaged cells and grown in the presence of 50% MEDII conditioned medium. The embryoid bodies were exposed to 10 μM S18 in the same medium from day 6 to 9 after derivation. At day 9 the S18 treated sfEBMs and matched control sfEBMs not exposed to S18 were fixed, embedded in plastic, cut to 3 micron sections and stained with DAPI to enable the precise determination of the proportion of the total healthy nuclei of an sfEBM that were rosette cell nuclei.
This material was exposed to 10 μM S18 in 50% MEDII medium for 2 days, followed by manual passaging, and an additional 4 days in 10 μM S18 in the same medium. […] The non-rosette regions of the sfEBM fragmented when manipulated and released extensive stringy material that was indicative of genomic DNA from lysed cells. […] The rosette pieces were incubated in 10 μM S18 for a further 4 days, and the medium was then switched to 50% DMEM/F12, 50% MEDII, supplemented with 1×N2, and 4 ng/ml FGF-2 at day 20 after the initial derivation of the embryoid bodies.
At day 21 some ceramide selected sfEBMs were seeded onto polyornithine/laminin coated slides, cultured in the same medium for an additional 8 days, and fixed for immunostaining. These seeded pieces developed as rosette cultures and mats of neurons were observed differentiating from these precursors.
Essentially serum free embryoid bodies were derived from manually passaged cells, or protease passaged cells. EBs derived from protease passaged cells were formed in the presence of 50% MEDII conditioned medium. The embryoid bodies were exposed to 10 μM S18 in the same medium from day 6 to 9 after derivation. At day 9 the S18 treated sfEBMs matched control sfEBMs not exposed to S18, and matched control manually passaged sfEBs were sectioned to enable the precise determination of the proportion of the total healthy nuclei of an sfEBM that were rosette cell nuclei. The serum free embryoid bodies were embedded using the Immuno-Bed kit (Polysciences, Inc.). Serum free embryoid bodies were rinsed with 1×PBS and fixed in 4% paraformaldehyde, 4% sucrose in 1×PBS for 30 minutes at 4° C. The cells were then washed in 1×PBS and stored at 4° C. PBS was removed and the embryoid bodies were dehydrated by incubation in a series of 25%, 50%, 75% Ethanol/PBS for 5 minutes at room temperature, followed by 100% Ethanol. Infiltration solution was made by adding 0.25 g Benzoyl Peroxide to 20 ml Immuno-Bed Solution A. The ethanol was removed from the serum free embryoid bodies and 1 ml infiltration solution was added. After one hour, the infiltration solution was changed for three 20 min incubations. For embedding, 1 ml solution B (accelerator) was added to 25 ml fresh infiltration solution. The infiltration solution was removed from the serum free embryoid bodies and 0.5 ml embedding solution was added. The samples were transferred to a mold, a block holder was added and the mold was placed at 4° C. to set. 3 micron sections were cut using a Leica microtome, and were stained with DAPI.

[2] = sfEBMs at day 14, 48 hours exposure to 10 μM S18

Structure (SMILES): CCCCCCCC/C=C\CCCCCCCC(=O)NC(CO)CO [S18, N-(2-hydroxy-1-(hydroxymethyl)ethyl)-oleoylamide]
- time until the effect was observed ([1]; 6, 8 or 10 μM S18): ≤ 24 h
- effect on neural rosette structures ([1]; 6, 8 or 10 μM S18 for 36 hours): did not appear to be adversely affected
- induction of apoptosis in the culture ([1]; 6, 8 or 10 μM S18 for 36 hours): induced apoptosis of a large proportion of the culture
- cell death ([1]; 36 hours exposure to 6 μM S18): a high proportion of cells within these cultures have been killed
- cell death ([1]; 36 hours exposure to 8 μM S18): a high degree of cell death is apparent
- derivation of sfEBMs from monolayer crater cells (sfEBMs in suspension; 10 μM S18, four days of treatment): No viable embryoid bodies were observed
- regions or cells of high Oct4 expression (residual pluripotent cells) (sfEBMs in suspension; 10 μM S18 in suspension, then seeded, anti-Oct4 immunostaining): no regions of high Oct4 expression could be detected; also recorded: do not exhibit any cells expressing high levels of Oct4
- mitotic activity of neural rosette precursor cells (PhosphoHistone H3) (sfEBMs in suspension; day 28 after derivation, 8 days after withdrawal of S18): still mitotically active
- apoptosis in the embryoid bodies (sfEBMs in suspension; [2]): extensive apoptosis in the bodies
- morphology of rosette regions (sfEBMs in suspension; [2]): morphologically normal
- surviving cells in DAPI stained sections of sfEBMs (sfEBMs in suspension; sfEBMs from SSEA4 selected protease passaged HESCs, 10 μM S18 from day 6 to 9): highly enriched population of neural rosette cells; also recorded: nearly all nuclei in the treated sfEBM were elongated in appearance; also recorded: Nearly all cells exhibited a radial nuclear staining
